Laboratory results reported in PubChem BioAssay AID1963844 (Molecular Pharmacology Branch, DTP, NCI, 2024).

System: 422866-222-R5-J1-PDC complex spheroid viability
Experiment: Anticancer human tumor 422866-222-R5-J1-PDC patient-derived pancreatic adenocarcinoma cell line growth inhibition [POLQ]
Conditions: for IC50: curve of first compound; for viability, T/C: stronger effect = lower value
Outline: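 Complex spheroid viability model combining PDC tumour cells with endothelial (HUVEC) and MSC stromal cells. Novobiocin, ART-558 or RP6685 were tested singly and in combination with standard and investigational anticancer drugs. Each was titrated in half-log steps from near clinical Cmax, or from 10 microM where Cmax was unknown.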

[1] = second compound 0.0316 µM, first compound 0.0316 µM
[2] = second compound 0.0316 µM, first compound 0.1 µM
[3] = second compound 0.0316 µM, first compound 0.316 µM
[4] = second compound 0.0316 µM, first compound 1 µM
[5] = second compound 0.0316 µM, first compound 3.16 µM
[6] = second compound 0.0316 µM, first compound 10 µM
[7] = second compound 0.1 µM, first compound 0.0316 µM
[8] = second compound 0.1 µM, first compound 0.1 µM
[9] = second compound 0.1 µM, first compound 0.316 µM
[10] = second compound 0.1 µM, first compound 1 µM
[11] = second compound 0.1 µM, first compound 3.16 µM
[12] = second compound 0.1 µM, first compound 10 µM
[13] = second compound 0.316 µM, first compound 0.0316 µM
[14] = second compound 0.316 µM, first compound 0.1 µM
[15] = second compound 0.316 µM, first compound 0.316 µM
[16] = second compound 0.316 µM, first compound 1 µM
[17] = second compound 0.316 µM, first compound 3.16 µM
[18] = second compound 0.316 µM, first compound 10 µM
[19] = second compound 1 µM, first compound 0.0316 µM
[20] = second compound 1 µM, first compound 0.1 µM
[21] = second compound 1 µM, first compound 0.316 µM
[22] = second compound 1 µM, first compound 1 µM
[23] = second compound 1 µM, first compound 3.16 µM
[24] = second compound 1 µM, first compound 10 µM
[25] = second compound 3.16 µM, first compound 0.0316 µM
[26] = second compound 3.16 µM, first compound 0.1 µM
[27] = second compound 3.16 µM, first compound 0.316 µM
[28] = second compound 3.16 µM, first compound 1 µM
[29] = second compound 3.16 µM, first compound 3.16 µM
[30] = second compound 3.16 µM, first compound 10 µM
[31] = second compound 10 µM, first compound 0.0316 µM
[32] = second compound 10 µM, first compound 0.1 µM
[33] = second compound 10 µM, first compound 0.316 µM
[34] = second compound 10 µM, first compound 1 µM
[35] = second compound 10 µM, first compound 3.16 µM
[36] = second compound 10 µM, first compound 10 µM
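Also: spheroids exposed to compounds for one week before readout.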
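For viability, T/C in this document: percent of DMSO vehicle wells luminescence so 100% = untreated viability.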

How did the IC50 (second compound 0.0316 µM) turn out when `COc1ccc([C@@H](O)c2cc(-c3ncnc4cc(N5CCOCC5)ccc34)c(F)cc2Cl)nn1` + COC1C(OC(N)=O)C(O)C(Oc2ccc3c(O)c(NC(=O)c4ccc(O)c(CC=C(C)C)c4)c(=O)oc3c2C)OC1(C)C was run?
Its IC50 is 2650 nM.

And the IC50 (second compound 0.1 µM)?
The IC50 was 1980 nM.

And the IC50 (second compound 0.316 µM)?
Its IC50 is 2190 nM.

What about the IC50 (second compound 1 µM) of the same compound?
Its IC50 is 2910 nM.

What about the IC50 (second compound 3.16 µM) of the same compound?
The IC50 was 2360 nM.

What about the IC50 (second compound 10 µM) of the same compound?
The IC50 was 1940 nM.

What about the viability, T/C [1] of the same compound?
Its viability, T/C is 96.4%.

What about the viability, T/C [2] of the same compound?
The viability, T/C was 96%.

What about the viability, T/C [3] of the same compound?
The viability, T/C was 76.5%.

What about the viability, T/C [4] of the same compound?
Its viability, T/C is 67.2%.

And the viability, T/C [5]?
Its viability, T/C is 44.6%.

And the viability, T/C [6]?
The viability, T/C was 40.5%.

What about the viability, T/C [7] of the same compound?
The viability, T/C was 101%.

And the viability, T/C [8]?
The viability, T/C was 100%.

What about the viability, T/C [9] of the same compound?
Its viability, T/C is 93.3%.

And the viability, T/C [10]?
The viability, T/C was 60%.

What about the viability, T/C [11] of the same compound?
The viability, T/C was 45.5%.

And the viability, T/C [12]?
The viability, T/C was 37.4%.

What about the viability, T/C [13] of the same compound?
The viability, T/C was 88.5%.

What about the viability, T/C [14] of the same compound?
Its viability, T/C is 94.9%.

What about the viability, T/C [15] of the same compound?
The viability, T/C was 82.8%.

And the viability, T/C [16]?
Its viability, T/C is 61.7%.

What about the viability, T/C [17] of the same compound?
The viability, T/C was 41.2%.

What about the viability, T/C [18] of the same compound?
Its viability, T/C is 46.5%.

And the viability, T/C [19]?
The viability, T/C was 109%.

What about the viability, T/C [20] of the same compound?
Its viability, T/C is 102%.

What about the viability, T/C [21] of the same compound?
The viability, T/C was 76%.

And the viability, T/C [22]?
The viability, T/C was 67.5%.

What about the viability, T/C [23] of the same compound?
The viability, T/C was 47.1%.

And the viability, T/C [24]?
Its viability, T/C is 40%.

What about the viability, T/C [25] of the same compound?
The viability, T/C was 98.8%.

And the viability, T/C [26]?
The viability, T/C was 99.5%.

And the viability, T/C [27]?
Its viability, T/C is 77.9%.

What about the viability, T/C [28] of the same compound?
Its viability, T/C is 62%.

And the viability, T/C [29]?
Its viability, T/C is 48.3%.

What about the viability, T/C [30] of the same compound?
The viability, T/C was 30.4%.

And the viability, T/C [31]?
Its viability, T/C is 97.7%.

And the viability, T/C [32]?
The viability, T/C was 99.5%.

And the viability, T/C [33]?
Its viability, T/C is 86.7%.

What about the viability, T/C [34] of the same compound?
The viability, T/C was 58.7%.

And the viability, T/C [35]?
Its viability, T/C is 45.4%.

And the viability, T/C [36]?
Its viability, T/C is 37%.

Which results are given for `COc1ccc([C@@H](O)c2cc(-c3ncnc4cc(N5CCOCC5)ccc34)c(F)cc2Cl)nn1` + Cc1cccc(N(C)C(=O)C2C(O)CCN2c2nc(C)cc(C(F)(F)F)c2C#N)c1?
IC50 (second compound 0.0316 µM): 2600 nM; IC50 (second compound 0.1 µM): 4620 nM; IC50 (second compound 0.316 µM): 2420 nM; IC50 (second compound 1 µM): 1920 nM; IC50 (second compound 3.16 µM): 1650 nM; IC50 (second compound 10 µM): 2280 nM; viability, T/C [1]: 91.6%; viability, T/C [2]: 92.2%; viability, T/C [3]: 77.4%; viability, T/C [4]: 62.1%; viability, T/C [5]: 49.1%; viability, T/C [6]: 35.5%; viability, T/C [7]: 92%; viability, T/C [8]: 81.3%; viability, T/C [9]: 83.2%; viability, T/C [10]: 64.5%; viability, T/C [11]: 54.5%; viability, T/C [12]: 42.3%; viability, T/C [13]: 108%; viability, T/C [14]: 86.3%; viability, T/C [15]: 70.9%; viability, T/C [16]: 61.3%; viability, T/C [17]: 43.9%; viability, T/C [18]: 41.4%; viability, T/C [19]: 89.9%; viability, T/C [20]: 81.1%; viability, T/C [21]: 85.9%; viability, T/C [22]: 58.5%; viability, T/C [23]: 44.6%; viability, T/C [24]: 33.3%; viability, T/C [25]: 79.8%; viability, T/C [26]: 90.7%; viability, T/C [27]: 80.3%; viability, T/C [28]: 56.4%; viability, T/C [29]: 43.1%; viability, T/C [30]: 37.1%; viability, T/C [31]: 93.3%; viability, T/C [32]: 83.8%; viability, T/C [33]: 73.5%; viability, T/C [34]: 59%; viability, T/C [35]: 46%; viability, T/C [36]: 37.6%

`CCc1cc2c(N3CCc4c(cc(Cn5ccnc5)cc4-c4cn(C)nc4C(F)(F)F)C3=O)ccnc2c(OC)n1` + COC1C(OC(N)=O)C(O)C(Oc2ccc3c(O)c(NC(=O)c4ccc(O)c(CC=C(C)C)c4)c(=O)oc3c2C)OC1(C)C was tested. Which IC50 (second compound 0.0316 µM) did it give?
The IC50 was over 10000 nM.

What about the IC50 (second compound 0.1 µM) of the same compound?
The IC50 was over 10000 nM.

And the IC50 (second compound 0.316 µM)?
Its IC50 is over 10000 nM.

And the IC50 (second compound 1 µM)?
The IC50 was over 10000 nM.

What about the IC50 (second compound 3.16 µM) of the same compound?
Its IC50 is over 10000 nM.

What about the IC50 (second compound 10 µM) of the same compound?
The IC50 was over 10000 nM.

What about the viability, T/C [1] of the same compound?
Its viability, T/C is 95.3%.

What about the viability, T/C [2] of the same compound?
Its viability, T/C is 92.8%.

And the viability, T/C [3]?
The viability, T/C was 108%.

What about the viability, T/C [4] of the same compound?
The viability, T/C was 119%.

And the viability, T/C [5]?
The viability, T/C was 113%.

What about the viability, T/C [6] of the same compound?
Its viability, T/C is 116%.

And the viability, T/C [7]?
The viability, T/C was 92.8%.

What about the viability, T/C [8] of the same compound?
The viability, T/C was 108%.

What about the viability, T/C [9] of the same compound?
Its viability, T/C is 116%.

And the viability, T/C [10]?
The viability, T/C was 104%.

What about the viability, T/C [11] of the same compound?
Its viability, T/C is 110%.

What about the viability, T/C [12] of the same compound?
Its viability, T/C is 111%.

What about the viability, T/C [13] of the same compound?
Its viability, T/C is 104%.

And the viability, T/C [14]?
Its viability, T/C is 91%.

And the viability, T/C [15]?
The viability, T/C was 92.2%.

And the viability, T/C [16]?
Its viability, T/C is 101%.

What about the viability, T/C [17] of the same compound?
Its viability, T/C is 112%.

What about the viability, T/C [18] of the same compound?
Its viability, T/C is 124%.

What about the viability, T/C [19] of the same compound?
Its viability, T/C is 86.6%.

What about the viability, T/C [20] of the same compound?
Its viability, T/C is 91.4%.

What about the viability, T/C [21] of the same compound?
The viability, T/C was 102%.

What about the viability, T/C [22] of the same compound?
The viability, T/C was 100%.

What about the viability, T/C [23] of the same compound?
Its viability, T/C is 115%.

What about the viability, T/C [24] of the same compound?
The viability, T/C was 124%.

What about the viability, T/C [25] of the same compound?
The viability, T/C was 91.9%.

What about the viability, T/C [26] of the same compound?
Its viability, T/C is 105%.

What about the viability, T/C [27] of the same compound?
The viability, T/C was 129%.

What about the viability, T/C [28] of the same compound?
The viability, T/C was 114%.

What about the viability, T/C [29] of the same compound?
The viability, T/C was 105%.

And the viability, T/C [30]?
The viability, T/C was 114%.

And the viability, T/C [31]?
Its viability, T/C is 93%.

What about the viability, T/C [32] of the same compound?
Its viability, T/C is 98.1%.

And the viability, T/C [33]?
The viability, T/C was 105%.

And the viability, T/C [34]?
Its viability, T/C is 109%.

What about the viability, T/C [35] of the same compound?
Its viability, T/C is 105%.

And the viability, T/C [36]?
The viability, T/C was 122%.
